Bounds are passed on as bounds.

Common to all, as to assay type: cell-based
In test [1] the test system is S. aureus. In words: standard test tube serial dilution test, S. aureus. To be noted: Staphylococcus aureus, broth serial dilution, read-out: Minimum Inhibitory Concentration. The procedure:
(§1) The anti-microbial nature of the instant novel compounds was shown by a standard test tube serial dilution test in which an appropriate number of test tubes of broth containing decreasing concentrations of the test agent was innoculated with the test organism. After a suitable period of incubation, the tubes were examined for the presence or absence of growth. The activity of the test agent was the lowest concentration which inhibited the growth of the organism and is expressed as the minimal inhibitory concentration in ug/ml.

In test [2] the test system is C. albicans. In words: standard test tube serial dilution test, C. albicans. To be noted: Candida albicans, broth serial dilution, read-out: Minimum Inhibitory Concentration. How it is done: as §1
Test [3] has as its system Str. mitis. In words: standard test tube serial dilution test, Str. mitis. To be noted: Streptococcus mitis, broth serial dilution, read-out: Minimum Inhibitory Concentration. How it is done: as §1
The test system of test [4] is P. ovale. The experiment in a line: standard test tube serial dilution test, P. ovale. To be noted: broth serial dilution, read-out: Minimum Inhibitory Concentration. The procedure:
as §1

Test [5] relates to A. niger. In words: standard test tube serial dilution test, A. niger. To be noted: Aspergillus niger, broth serial dilution, read-out: Minimum Inhibitory Concentration. How it is done:
as §1

Test [6] has as its system E. coli. In words: standard test tube serial dilution test, E. coli. To be noted: Escherichia coli, broth serial dilution, read-out: Minimum Inhibitory Concentration. The procedure:
as §1

Test [7] deals with T. mentagrophytes. In words: standard test tube serial dilution test, T. mentagrophytes. To be noted: Trichophyton mentagrophytes, broth serial dilution, read-out: Minimum Inhibitory Concentration. The procedure:
as §1

For test [8], the system named is Ps. aeruginosa. The experiment in a line: standard test tube serial dilution test, Ps. aeruginosa. To be noted: Pseudomonas aeruginosa, broth serial dilution, read-out: Minimum Inhibitory Concentration. How it is done:
as §1

`CCCCCCCCCCCC[N+](C)(C)CCOC12CC3CC(CC(C3)C1)C2` [C12 H25, 2-(1^1-adamantyloxy)ethyldimethyldodecyl ammonium bromide]: the MIC is 0.39 µg/mL in test [1]; 1.56 µg/mL in test [2]; 0.19 µg/mL in test [3]; over 50 µg/mL in test [4]; 50 µg/mL in test [5]; 12.5 µg/mL in test [6]. The results for the MIC in test [7] and in test [8] were 3.12 µg/mL and over 25 µg/mL, respectively.
Consider `CCCCCCCCCCCCCC[N+](C)(C)CCOC12CC3CC(CC(C3)C1)C2` [C14 H29, 2(1^1 -adamantyloxy)ethyldimethyltetradecylammonium bromide], for which the MIC in test [1] is 0.78 µg/mL; in test [2], 1.56 µg/mL; in test [3], 0.39 µg/mL; in test [4], over 50 µg/mL; in test [5], 50 µg/mL; in test [6] it was 12.5 µg/mL. The MIC in test [7] is 6.25 µg/mL; in test [8], over 25 µg/mL.

The values are drawn from patent US3961075A, “Ether-linked quaternary ammonium compositions” (Colgate-Palmolive Company, priority 1975, dated 1976).
